Source: PubChem BioAssay (NCI)
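Grown in 96-well plates, cells were treated for 48 hours with each compound at five concentrations. Insufficient inhibition: endpoint recorded as highest concentration tested. Abbreviation: GI50, concentration required for 50% inhibition of growth. TGI is the concentration that stops growth completely.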

Legend:
Assay in all cases: NCI-60 cell line screen, 48 h
[1] = tested on: RXF 393 renal
[2] = tested on: A549 NSCLC
[3] = tested on: SK-MEL-5 melanoma
[4] = tested on: UACC-62 melanoma
[5] = tested on: OVCAR-3 ovarian
[6] = tested on: K-562 leukemia
[7] = tested on: CCRF-CEM leukemia
[8] = tested on: UACC-257 melanoma
[9] = tested on: SK-MEL-28 melanoma
[10] = tested on: BT-549 breast
[11] = tested on: OVCAR-5 ovarian
[12] = tested on: MCF7 breast
[13] = tested on: SF-268 CNS
[14] = tested on: KM12 colon

SMILES	TGI [1] [µM]	TGI [2] [µM]	TGI [3] [µM]	TGI [4] [µM]	TGI [5] [µM]	TGI [6] [µM]	TGI [7] [µM]	TGI [8] [µM]	TGI [9] [µM]	TGI [10] [µM]	TGI [11] [µM]	TGI [12] [µM]	TGI [13] [µM]	TGI [14] [µM]	GI50 [2] [µM]	GI50 [5] [µM]	GI50 [12] [µM]	GI50 [13] [µM]	GI50 [8] [µM]
O=C(O)C1=C(CO)Oc2cc3c(cc2C1c1ccc2c(c1)OCO2)OCO3 (centres undefined)	> 100	> 100	> 100	> 100	> 100	> 100	> 100	> 100	> 100	–	–	–	–	–	–	–	–	–	–
CC(C)N(CC(=O)O)CC(=O)O	> 100	> 100	> 100	> 100	> 100	> 100	> 100	> 100	> 100	> 100	> 100	> 100	> 100	> 100	–	–	–	–	–
CC(C)=CCC/C(C)=C/Cc1c2c(c3oc(-c4ccc(O)c(O)c4)c(O)c(=O)c3c1O)C=CC(C)(C)O2	18.6	12.4	9.86	12.4	6.34	9.63	8.82	11.2	10.8	15	15.1	11.4	10.7	9.89	–	–	–	–	–
COc1ccc2c(O)c1-c1c(OC)ccc(c1O)SSc1ccc(OC)c(c1O)-c1c(OC)ccc(c1O)SS2	60	> 100	> 100	–	> 100	97.1	> 100	> 100	> 100	–	> 100	> 100	> 100	> 100	–	–	–	–	–
[O-]c1c2c(nn1-c1ccc(F)cc1)c1ccccc1c[n+]2Cc1ccccc1	33.7	73.1	13.4	14.2	22.1	81.4	33.7	30.3	34	–	41.3	–	40.7	25	–	–	–	–	–
C/C(=C\[Si](C)(C)c1ccco1)C(C)(O)[C@H](C)O (some centres undefined)	–	> 100	> 100	> 100	> 100	> 100	> 100	96.3	> 100	–	> 100	> 100	> 100	> 100	–	–	–	–	–
CCOC(=O)c1sc2nc(SC)nc3c2c1NC(=O)CN3c1ccc(F)cc1	41.8	50.9	> 100	> 100	> 100	> 100	78.4	> 100	82.6	43.3	> 100	> 100	36.2	> 100	–	–	–	–	–
C=C(C)[C@@H]1CC[C@]2(C(=O)O)CC[C@]3(C)[C@H](CC[C@@H]4[C@@]5(C)C/C(=C/c6ccco6)C(=O)C(C)(C)[C@@H]5CC[C@]43C)[C@@H]12	–	> 100	–	–	3.58	–	–	> 100	–	–	–	10.7	> 100	–	2.12	1.72	2.62	3.63	3.12
COc1cc2cc(C(=O)N3CC(CCl)c4ccc(NO)cc43)[nH]c2c(OC)c1OC (centres undefined)	0.343	> 100	0.342	0.372	0.535	0.965	1.16	–	3.22	1.05	> 37.2	> 32.8	0.749	16.3	–	–	–	–	–
CC(=O)NC1C(OCc2ccccc2)OC(CO)C(O)C1OCC(=O)NC(C(=O)NC(CCC(=O)NCCCCCC(=O)Nc1ccc2c(c1)CN1C(=O)c3ccccc3C1=N2)C(N)=O)C(C)C (centres undefined)	45	> 100	49.6	40.9	> 100	> 100	> 100	66.7	39	48.1	> 100	56.7	41.8	48.7	–	–	–	–	–
CCCCC(CC)C(=O)Oc1ccc(C(=O)c2ccccc2)c(O)c1 (centres undefined)	> 100	> 100	> 100	> 100	> 100	> 100	> 100	> 100	> 100	> 100	> 100	> 100	> 100	> 100	–	–	–	–	–
CC1CC(C)(O)C2C3(C)CCCC2(COC3=O)C12CCC1(CCOC1=O)O2 (centres undefined)	> 250	> 250	> 250	> 250	> 250	> 250	> 250	> 250	> 250	–	> 250	> 250	> 250	> 250	–	–	–	–	–
Cc1csc2nc(-c3cc([N+](=O)[O-])c(Cl)cc3Cl)c(/C=N/N=C(N)N)n12	35	40.9	30.9	27.2	43.6	20.4	> 100	32.8	31.1	29.5	49.4	37.5	39.7	32.4	–	–	–	–	–
COC(=O)[C@]12CC[C@H]3CN(S(=O)(=O)c4ccc(C)cc4)[C@H]([C@H]31)[C@H](c1ccco1)N2S(=O)(=O)c1ccc(C)cc1	71.5	> 100	> 100	69.3	> 100	> 100	> 100	81.1	> 100	91.6	> 100	> 100	> 100	> 100	–	–	–	–	–
CN(C)CCC(=O)[C@@]1(O)CC[C@H]2[C@@H]3CC=C4C[C@@H](O)CC[C@]4(C)[C@H]3CC[C@@]21C	23.1	> 86.8	> 81.8	32.2	29.7	48.9	> 55.7	26.1	33.2	32.8	> 100	16.8	32.2	45.3	–	–	–	–	–
CCCCCCCCCCCCCCCCCCN(C)CC(COC)OP(=O)([O-])OCC[N+](C)(C)C (centres undefined)	2.29	7.69	23.7	14.9	11.2	40.2	5.16	22.7	31.2	6.75	5.95	14.8	4.17	1.62	–	–	–	–	–
O=C1c2cc3c(cc2[C@@H]2C(O)[C@H]4O[C@H]4C4CCN1C42)OCO3 (some centres undefined)	–	> 37.5	–	> 37.5	> 37.5	> 37.5	> 37.5	–	> 37.5	–	> 37.5	–	> 37.5	> 37.5	–	–	–	–	–
NC1=NC(c2ccc(Cl)cc2)=CC(c2cccc(Cl)c2)S1 (centres undefined)	77.1	87.2	80.7	51.4	> 100	> 100	> 100	81.7	–	> 100	> 100	> 100	> 100	> 100	–	–	–	–	–
c1ccc(-c2cc3nc4ccccc4nc3cc(-c3ccccc3)[nH][nH]2)cc1	> 100	> 100	> 100	> 100	64.7	> 100	> 100	> 100	> 100	> 100	> 100	> 100	> 100	> 100	–	–	–	–	–
CCn1c2ccccc2c2ccc(C3C4C(=O)N(c5cccc6ccccc56)C(=O)C4ON3C(C(N)=O)c3ccccc3)cc21 (centres undefined)	> 25	> 25	> 25	> 25	> 25	> 25	–	> 25	> 25	> 25	> 25	> 25	> 25	> 25	–	–	–	–	–
C/C=C\C1OC1(C)c1cc(=O)c2c(C)cc3c(c2o1)C(=O)c1c(O)c(C2CC(C)(N(C)C)C(OC(C)=O)C(C)O2)cc(C2CC(N(C)C)C(O)C(C)O2)c1C3=O (centres undefined)	0.00746	0.482	0.00936	0.00504	0.0365	0.135	0.379	0.0366	–	0.0221	0.488	0.0401	0.0721	0.0109	–	–	–	–	–
